Measured values as given in publication PMC7768359, “Synthesis of Platinum(II) Complexes with Some 1-Methylnitropyrazoles and In Vitro Research on Their Cytotoxic Activity” (Pharmaceuticals, 2020).

Key:
Format in all cases: physicochemical
[1] = Qualitative solubility in water
Experimental: A solution of 254 mg (2 mmol) of 1-methyl-4-nitropyrazole in 15 mL of warm water was mixed with a solution of 415 mg (1 mmol) of K2PtCl4 in 5 mL of water. The reaction mixture was maintained in darkness at 25 °C and monitored periodically by TLC until the absence of free ligand (app. 3 weeks). Then, the yellow precipitate was filtered off and dried, giving 480 mg (92%) of the crude mixture, which mainly consisted of two individual Pt complexes (TLC). […] Combustion and spectral analyses for the cis complex 1: Elemental analysis for formula C8H10N6O4Cl2Pt of compound 1: Calculated/Found (%): C 18.47/18.80, H 1.94/1.89, N 16.16/15.97, Cl 13.63/13.70. ^1H NMR (300.15 MHz, acetone-d6): δ[ppm] […] Combustion and spectral analyses for the trans complex 2: Elemental analysis for formula C8H10N6O4Cl2Pt of the trans-complex 2: Calculated/Found (%): C 18.47/18.76, H 1.94/1.84, N 16.16/15.86, Cl 13.63/13.93. ^1H NMR (300.15 MHz, acetone-d6): δ[ppm] […] Analysis of Mass Spectrum (ESI-MS) of both complexes 1 and 2: The calculated value of the parent peak mass for the formula C8H10N6O4Cl2Pt was 518.9789 u.

[2] = Reaction with L-glutathione, UV absorbance at 260 nm; details: 2 mM GSH, pH 7.4, 37 °C
Description: Platinum compounds have a strong ability to react with sulfur donor ligands. […] These side reactions are considered as playing an important role in mechanisms of tumor resistance to platinum drugs, their inactivation, and toxic side effects. The two most important endogenous thiols to which platinum complexes can bind after intravenous administration or after they enter the cancer cell are reduced L-glutathione (GSH) and metallothionein (MT). In the present work, we investigated reactions of GSH with compounds 1 and 2, measuring the UV absorbance at 260 nm (which indicates the formation of Pt–S and S–S bonds) as a function of time using a double-beam spectrophotometer (Figure 6). […] Despite the better solubility of tested complexes in acetone, dioxane was used in this experiment due to its lack of absorption of UV radiation at 260 nm in contrast to acetone that strongly absorbs at this wavelength preventing a correct measurement of absorbance changes.
The solutions of compounds 1 or 2 in dioxane (30 µL) at 60 mM concentration were added to 3 mL of 2 mM solution of GSH (reduced L-glutathione) previously saturated with argon in the medium containing 10 mmol/L NaCl and 10 mmol/L Tris xHCl buffer, pH 7.4, warmed to 37 °C, reaching a final concentration of […] of the platinum complex. The reaction progress during incubation at 37 °C was monitored using UV absorption spectrometry at 260 nm. […]

[3] = Isomerization of complexes in solution; details: chloroform, acetone, DMSO, DMF
Description: Additionally, it is worth adding that complexation with 1-methyl-3-nitropyrazole, was unsuccessful, probably because of the steric hindrance of both methyl and nitro groups that constrain access to free pair of electrons of pyrazole nitrogen. Besides, the electrostatic repelling of the approaching tetrachloroplatinate anion by electron dense oxygen atoms of the nitro group may also be an important factor that can hinder and/or prevent the formation of a complex. […] The reason is that both symmetric and antisymmetric valence vibrations of cis Pt(II)complexes are active, contrary to trans isomers in which case only antisymmetric vibration is active.
A solution of 254 mg (2 mmol) of 1-methyl-5-nitropyrazole in 3 mL of acetone was mixed with a solution of 415 mg (1 mmol) of K2PtCl4 in 5 mL of water and maintained in darkness at 25 °C until the reaction completion (TLC, app. 3 days). […] Combustion and spectral analyses for the cis complex 3: Elemental analysis for formula C8H10N6O4Cl2Pt of compound 3: Calculated/Found (%): C 18.47/17.97, H 1.94/1.66, N 16.16/16.50, Cl 13.63/13.87. ^1H NMR (300.15 MHz, acetone-d6): δ[ppm] […] Combustion and spectral analyses for the trans complex 4: Elemental analysis for formula C8H10N6O4Cl2Pt of trans-complex 4: Calculated/Found (%): C 18.47/18.14, H 1.94/1.65, N 16.16/15.89, Cl 13.63/13.82. ^1H NMR (300.15 MHz, acetone-d6): δ[ppm] […]

Row | Compound | solubility in water [1] | half-time of the reaction with GSH [2] [min] | isomerization in solution [3]
1 | Cn1cc([N+](=O)[O-])c[n+]1[Pt@SP2-2]([Cl])([Cl])[n+]1cc([N+](=O)[O-])cn1C [Compound 1, cis-dichloridobis(1-methyl-4-nitropyrazole)platinum(II)] | poorly in water | 83 | –
2 | Cn1cc([N+](=O)[O-])c[n+]1[Pt@SP3-2]([Cl])([Cl])[n+]1cc([N+](=O)[O-])cn1C [Compound 2, trans-dichloridobis(1-methyl-4-nitropyrazole)platinum(II)] | very poorly in water | 13 | –
3 | Cn1c([N+](=O)[O-])cc[n+]1[Pt@SP2-2]([Cl])([Cl])[n+]1ccc([N+](=O)[O-])n1C [Compound 3, cis-dichloridobis(1-methyl-5-nitropyrazole)platinum(II)] | – | – | occurred slowly in chloroform or acetone solutions but much faster in more polar aprotic solvents (DMSO, DMF)
4 | Cn1c([N+](=O)[O-])cc[n+]1[Pt@SP3-2]([Cl])([Cl])[n+]1ccc([N+](=O)[O-])n1C [Compound 4, trans-dichloridobis(1-methyl-5-nitropyrazole)platinum(II)] | – | – | occurred slowly in chloroform or acetone solutions but much faster in more polar aprotic solvents (DMSO, DMF)
